Measured values taken from article PMC8631675, “Neuroprotective effects of some epigenetic modifying drugs’ on Chlamydia pneumoniae-induced neuroinflammation: A novel model” (PLoS ONE, 2021).
Like-named read-outs stand apart in the source and are kept apart here.

Legend:
SH-SY5Y cells = assay: Total ROS/Superoxide detection; format: cell-based, human; details: for Increase of ROS levels compared to the control group: inducers without drug pretreatment (Aβ, pyocyanin, or both)
Experimental: The Total ROS/Superoxide Detection Kit (ENZ-51010, Enzo) was used according to the kit process for evaluating the protective effects of the treatment groups on SH-SY5Y cells seeded at a 2x10^4 density per well in 96-well plates and Aβ was applied. ROS inhibitor N-acetyl cysteine (NAC) was applied at 5 mM concentration to negative control groups 30 minutes before the experiment and after incubation, 100 μL of “ROS/Superoxide Detection Solution” was added to the wells in the kit. The same procedure was done without the application of ROS inhibitor. Fluorometric analysis of stained cells was analyzed with Cytation 3 Cell Imaging Multi-Mode Reader (BioTek) using 490/525 nm and 550/620 nm filter sets.

[1] = system: differentiated SH-SY5Y cells; assay: Cell viability against Aβ-induced neurotoxicity, xCELLigence; format: cell-based, human
Experimental: Pathological deterioration in AD is mainly associated with overproduction of the Aβ peptide and the Aβ (1–42) variant is the toxic form that is more predominant in Alzheimer’s patients. In this study, a modified oligomeric Aβ (1–42) neurotoxicity analysis protocol was applied in order to elucidate the effects of treatment groups on SH-SY5Y cell viability in the presence of Aβ [56]. In order to model Aβ-induced neurotoxicity in vitro, an oligomeric form of the Aβ1–42 peptide was prepared by diluting with ice-cold Ham’s F12 Nutrient Mixture medium dissolved in PBS containing 0.02 M NaOH at a final concentration of 50 μM and kept in a 37°C incubator for 7 days to form peptide aggregates prior to the experiments. 5x10^3 SH-SY5Y cells were differentiated inside the xCELLigence instrument for 5 days and treated with 100 nM TSA, RG108, givinostat, rifampin; 100 ng/ml LPS+IFN-ɣ or 1 μg/ml CFS+IFN-ɣ for 24 h in order to evaluate neuroprotection. The co-culture was performed in the same way as the neuroinflammation model. Neurotoxicity was obtained instead of neuroinflammation by diluting to 5 μM with fresh medium and adding Aβ1–42 aggregates to the wells for 24 h in 100 μl of medium. Cell viability data was then monitored for 24 h and analyzed within the instrument.

[2] = system: differentiated SH-SY5Y cells; assay: Annexin V-PI staining of Aβ-induced cell death, flow cytometry; format: cell-based, human; details: for Necrotic effect (Q5-UL): control 1.6%; for Apoptotic effect (early apoptosis + late apoptosis): control 1.9%; for Percentage of living cells (Live): control 96.5%
Experimental: To determine neuronal apoptosis associated with Aβ exposure, 25x10^3 differentiated SH-SY5Y cells were seeded in 24-well plates and Aβ was applied. After 24 h, cells were trypsinized and staining was performed according to the CF 488A Annexin V and PI Apoptosis Kit (Biotium, USA, Cat. No: 30061) protocol. After washing the cells with 1xPBS, the working solution was prepared by diluting the PI with Annexin V binding buffer included in the kit. 5 μl Annexin V and 2 μl PI working solution were added to the centrifuge tubes and binded with 100 μl Annexin V binding buffer. After the samples were incubated for 30 minutes on ice and in the dark, 400 μl of Annexin V binding buffer was added to each tube and the samples were measured and analyzed in a BD Accuri™ C6 flow cytometry device.

APP/PS1 mice = system: APP/PS1 mice; design: method as in PMID 33397436; details: cited from earlier work
HMC3 microglia cells = assay: Cell proliferation (cytotoxicity) analysis with xCELLigence, HMC3; format: cell-based, human
Experimental: (§1) Cell proliferation analysis was performed with xCELLigence Real-Time Cell Analysis System to assess TSA, RG108, givinostat, and rifampin concentrations for use in both models. Differentiated SH-SY5Y and HMC3 microglia cells were seeded at a 5x10^3 density per well and incubated 24 h until CI values reached a log phase. The system stopped at the end of 24 h, 100, 10 and 1 μM TSA, givinostat, RG108 and rifampin were applied on current media and the cell viability was tracked. […] Simultaneously, slope plots were drawn using the CI values at 24 and 48 hours, and the statistical significance of the values discovered by assuming the average CI values of the control wells to be 100% was calculated.

[3] = system: differentiated SH-SY5Y cells; assay: Cell proliferation (cytotoxicity) analysis with xCELLigence, SH-SY5Y; format: cell-based, human
Experimental: as §1

[4] = 24 h pretreatment (drugs 100 nM; CFS 1 μg/ml + IFN-γ; LPS 100 ng/ml + IFN-γ), then 5 μM Aβ (1–42) aggregates 24 h
[5] = pretreatment (drugs 100 nM; LPS 100 ng/ml + IFN-γ; CFS 1 μg/ml + IFN-γ) + 5 μM Aβ 24 h
[6] = 30 minutes NAC 5 mM, treated (drugs 100 nM; LPS 100 ng/ml; CFS 1 μg/ml, with IFN-γ) prior to Aβ exposure
[7] = cells treated (drugs 100 nM; LPS 100 ng/ml; CFS 1 μg/ml, with IFN-γ) before exposure to Aβ, without NAC

| Molecule | Increase of ROS levels compared to the control group (SH-SY5Y cells; without NAC) [%] | CI values compared to the control group [1, 4] [%] | Reduction of HMC3 cell viability compared to the control group (HMC3 microglia cells; 1 μM (printed M), 24 hours) [%] | Reduction of HMC3 cell viability compared to the control group (HMC3 microglia cells; 1 μM (printed M), 48 hours) [%] | Reduction of HMC3 cell viability compared to the control group (HMC3 microglia cells; 10 μM, 24 hours) [%] | Reduction of HMC3 cell viability compared to the control group (HMC3 microglia cells; 10 μM, 48 hours) [%] | Reduction of HMC3 cell viability compared to the control group (HMC3 microglia cells; 100 μM, 24 hours) [%] | Reduction of HMC3 cell viability compared to the control group (HMC3 microglia cells; 100 μM, 48 hours) [%] | Necrotic effect (Q5-UL) [2, 5] [%] | Apoptotic effect (early apoptosis + late apoptosis) [2, 5] [%] | Percentage of living cells (Live) [2, 5] [%] | Reduction of differentiated SH-SY5Y cell viability ([3]; 1 μM, 24 hours) [%] | Reduction of differentiated SH-SY5Y cell viability ([3]; 1 μM, 48 hours) [%] | Reduction of differentiated SH-SY5Y cell viability ([3]; 10 μM, 24 hours) [%] | Reduction of differentiated SH-SY5Y cell viability ([3]; 10 μM, 48 hours) [%] | Reduction of differentiated SH-SY5Y cell viability ([3]; 100 μM, 24 hours) [%] | Reduction of differentiated SH-SY5Y cell viability ([3]; 100 μM, 48 hours) [%] | Increase of total amount of ROS compared to the control group, with NAC (SH-SY5Y cells; [6]) [%] | Decrease of total ROS amount according to the Aβ group (SH-SY5Y cells; [7]) [%] | also measured |
| --- | --- | --- | --- | --- | --- | --- | --- | --- | --- | --- | --- | --- | --- | --- | --- | --- | --- | --- | --- | --- |
| Cn1c2cccc(=O)c-2nc2ccccc21 [pyocyanin] | 36.49 |  |  |  |  |  |  |  |  |  |  |  |  |  |  |  |  |  |  | Decrease of amount of ROS, with NAC (SH-SY5Y cells; 30 minutes NAC 5 mM, pyocyanin without Aβ): 0.85% |
| Aβ: oligomeric/aggregated Aβ1–42 peptide used at 5 μM to induce neurotoxicity | 43.58 |  |  |  |  |  |  |  |  |  |  |  |  |  |  |  |  |  |  | CI values compared to the control group ([1]; 5 μM Aβ (1–42) aggregates alone, 24 h): 48.5%; Necrotic effect (Q5-UL) ([2]; 5 μM Aβ alone 24 h): 6.7%; Apoptotic effect (early apoptosis + late apoptosis) ([2]; 5 μM Aβ alone 24 h): 8.5%; Percentage of living cells (Live) ([2]; 5 μM Aβ alone 24 h): 84.8%; Increase of total amount of ROS compared to the control group, with NAC (SH-SY5Y cells; 30 minutes ROS inhibitor NAC 5 mM, inducers without drug pretreatment (Aβ, or Aβ with pyocyanin)): 6.62% |
| CC(/C=C/C(=O)NO)=C\[C@@H](C)C(=O)c1ccc(N(C)C)cc1 [TSA, Trichostatin A] |  | 137 | 0.04 | 1.75 | 13.88 | 21.94 | 31.68 | 51.2 | 5.6 | 5.8 | 88.6 | 91.34 | 97.97 | 97.43 | 98.9 | 97.86 | 99.79 | 0.7 | 53.43 | Effect on Aβ plaques and soluble Aβ oligomers in the brain (APP/PS1 mice): reduce Aβ plaques and soluble Aβ oligomers in the brain; Effect on learning and memory behaviors (APP/PS1 mice): improve learning and memory behaviors; IC50 (HMC3 microglia cells; from CI values at 48th hour, 1, 10 and 100 μM tested, read-out: IC50 Values 48h HMC3): 156 nM; IC50 ([3]; from CI values at 24th hour, 1, 10 and 100 μM tested, read-out: IC50 Values 24h SH-SY5Y): 596 nM; IC50 ([3]; from CI values at 48th hour, 1, 10 and 100 μM tested, read-out: IC50 Values 48h SH-SY5Y): 312 nM; Decrease of total amount of ROS compared to the control group (SH-SY5Y cells; cells treated with compounds (100 nM) before exposure to Aβ, without NAC): 9.85% |
| CCN(CC)Cc1ccc2cc(COC(=O)Nc3ccc(C(=O)NO)cc3)ccc2c1 [Givinostat, givinostat] |  | 136.2 | 35.01 | 62.78 | 58.19 | 92.67 | 93.58 | 99.29 | 7.8 | 7.8 | 84.3 | 88.72 | 90.56 | 96.85 | 96.9 | 98.06 | 98.77 | 22.87 | 30.49 | IC50 (HMC3 microglia cells; Homo sapiens, HMC3, 24 h, from CI values at 24th hour, 1, 10 and 100 μM tested, read-out: IC50 Values 24h HMC3): 11800 nM; IC50 (HMC3 microglia cells; Homo sapiens, HMC3, 48 h, from CI values at 48th hour, 1, 10 and 100 μM tested, read-out: IC50 Values 48h HMC3): 539 nM; Reduction of cell viability compared to the Aβ positive control group ([2]; 100 nM + 5 μM Aβ): 0.5%; IC50 ([3]; Homo sapiens, SH-SY5Y, 24 h, from CI values at 24th hour, 1, 10 and 100 μM tested, read-out: IC50 Values 24h SH-SY5Y): 2780 nM; IC50 ([3]; Homo sapiens, SH-SY5Y, 48 h, from CI values at 48th hour, 1, 10 and 100 μM tested, read-out: IC50 Values 48h SH-SY5Y): 1420 nM; Increase of total amount of ROS compared to the control group (SH-SY5Y cells; cells treated (drugs 100 nM; LPS 100 ng/ml; CFS 1 μg/ml, with IFN-γ) before exposure to Aβ, without NAC, not significant): 13.09% |
